From paper PMC6775455, “Chemoperception of Specific Amino Acids Controls Phytopathogenicity in Pseudomonas syringae pv. tomato” (mBio, 2019)

biological target: T1, PsPto-PscA-LBD (Pseudomonas syringae group genomosp. 3, UniProt Q882Z2); experiment: isothermal titration calorimetry; type: binding; details: read-out: Mean KD (μM) ± SEM
T1 construct: host E. coli BL21(DE3)
Excerpt: isothermal titration calorimetry on PsPto-PscA-LBD

T1 sequence (Q882Z2 30-278): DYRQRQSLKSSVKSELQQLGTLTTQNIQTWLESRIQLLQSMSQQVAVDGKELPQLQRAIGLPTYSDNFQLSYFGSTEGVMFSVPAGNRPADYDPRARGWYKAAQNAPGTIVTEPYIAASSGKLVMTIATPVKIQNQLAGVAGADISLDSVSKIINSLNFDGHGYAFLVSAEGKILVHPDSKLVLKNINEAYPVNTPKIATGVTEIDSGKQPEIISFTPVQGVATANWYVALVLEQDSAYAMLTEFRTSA

Row | SMILES | Kd
1 | N[C@H](CC(=O)O)C(=O)O [D-Asp] | 1.2 ± 0.1 µM
2 | N[C@@H](CC(=O)O)C(=O)O [L-Asp] | 1.2 ± 0.1 µM
3 | N[C@@H](CCC(=O)O)C(=O)O [L-Glu] | 3.4 ± 0.1 µM
